Laboratory results taken from ChEMBL document CHEMBL1201862, “PubChem BioAssay data set” (2004).
Active and inactive are the calls of the source.

How the values were obtained:
[1] = Luminescence Cell-Based Dose Retest to Confirm Inhibitors of Cancer Stem Cells. [Related pubchem assays (depositor defined):AID2717, AID2721]; format: functional; details: Homo sapiens
[2] = target: T1, Ubiquitin-conjugating enzyme E2 N (Homo sapiens, UniProt P61088); format: functional;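 also: Dose-response confirmation in a TR-FRET assay detecting UBC13-driven polyubiquitin chain formation, inhibition measured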
T1 sequence (P61088 whole entry): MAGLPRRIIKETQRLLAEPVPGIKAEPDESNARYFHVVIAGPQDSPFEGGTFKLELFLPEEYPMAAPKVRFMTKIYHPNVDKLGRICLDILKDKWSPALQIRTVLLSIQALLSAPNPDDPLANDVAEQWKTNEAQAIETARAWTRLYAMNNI

A-375 = assay: proliferation inhibition in MITF-low A375 cells – cell-based, cherry-pick samples, set 2, counter-screen for MITF modulator project, dose response (AID 540335); format: functional; details: Homo sapiens
HEK293 = assay: cells; format: functional, cell-based; details: Homo sapiens
[3] = target: T2, Nuclear receptor subfamily 0 group B member 1 (Homo sapiens, UniProt P51843); assay: Luminescence-based cell-based high throughput dose response assay for inhibitors of the orphan nuclear receptor subfamily 0, group B, member 1 (DAX1; NR0B1). [Related pubchem assays (depositor defined):AID504766, AID504790]; format: functional
T2 sequence (P51843 whole entry): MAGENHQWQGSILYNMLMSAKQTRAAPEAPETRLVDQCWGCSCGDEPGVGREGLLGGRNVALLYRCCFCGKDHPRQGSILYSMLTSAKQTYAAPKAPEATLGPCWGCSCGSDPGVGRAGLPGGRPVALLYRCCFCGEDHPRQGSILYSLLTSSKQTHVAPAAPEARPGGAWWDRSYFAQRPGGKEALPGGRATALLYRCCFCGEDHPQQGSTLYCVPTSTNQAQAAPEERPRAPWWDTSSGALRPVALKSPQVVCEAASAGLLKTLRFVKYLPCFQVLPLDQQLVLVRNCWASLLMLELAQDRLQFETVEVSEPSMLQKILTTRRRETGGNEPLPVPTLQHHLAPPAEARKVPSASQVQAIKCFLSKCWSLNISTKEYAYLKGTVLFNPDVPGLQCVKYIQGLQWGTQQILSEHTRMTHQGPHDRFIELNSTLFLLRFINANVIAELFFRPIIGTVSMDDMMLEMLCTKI

HeLa = assay: ATP-based viability loss in HeLa cells – cell-based, CellTiter-Glo luminescence, cherry-pick samples, cytotoxicity control for MITF activator project, dose response (AID 540259); format: functional; details: Homo sapiens
Protein skinhead-1 = target: T3, Protein skinhead-1 (Caenorhabditis elegans, UniProt P34707); format: functional
T3 sequence (P34707 whole entry): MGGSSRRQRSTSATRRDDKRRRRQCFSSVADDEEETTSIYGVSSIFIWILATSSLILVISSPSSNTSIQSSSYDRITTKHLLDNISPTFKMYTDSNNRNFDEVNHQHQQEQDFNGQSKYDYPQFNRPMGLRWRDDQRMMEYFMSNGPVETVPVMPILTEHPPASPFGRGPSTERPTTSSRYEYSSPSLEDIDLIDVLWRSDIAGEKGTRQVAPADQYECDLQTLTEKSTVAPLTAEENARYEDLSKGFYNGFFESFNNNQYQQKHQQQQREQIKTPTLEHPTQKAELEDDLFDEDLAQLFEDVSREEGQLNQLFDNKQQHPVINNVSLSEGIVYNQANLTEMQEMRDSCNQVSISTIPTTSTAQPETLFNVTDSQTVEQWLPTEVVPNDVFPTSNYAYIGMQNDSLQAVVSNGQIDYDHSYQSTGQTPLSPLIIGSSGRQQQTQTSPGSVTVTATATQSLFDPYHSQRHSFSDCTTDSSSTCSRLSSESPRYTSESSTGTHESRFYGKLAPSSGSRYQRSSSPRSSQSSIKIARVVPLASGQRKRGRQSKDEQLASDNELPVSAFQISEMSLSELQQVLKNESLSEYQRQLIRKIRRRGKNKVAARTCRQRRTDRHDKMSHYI

Cytochrome P450 3A4 = Cytochrome P450 3A4 (Homo sapiens, UniProt P08684);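 also: CYP3A4 tested as one member of a cytochrome P450 panel screen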
Sequence of Cytochrome P450 3A4 (P08684 whole entry): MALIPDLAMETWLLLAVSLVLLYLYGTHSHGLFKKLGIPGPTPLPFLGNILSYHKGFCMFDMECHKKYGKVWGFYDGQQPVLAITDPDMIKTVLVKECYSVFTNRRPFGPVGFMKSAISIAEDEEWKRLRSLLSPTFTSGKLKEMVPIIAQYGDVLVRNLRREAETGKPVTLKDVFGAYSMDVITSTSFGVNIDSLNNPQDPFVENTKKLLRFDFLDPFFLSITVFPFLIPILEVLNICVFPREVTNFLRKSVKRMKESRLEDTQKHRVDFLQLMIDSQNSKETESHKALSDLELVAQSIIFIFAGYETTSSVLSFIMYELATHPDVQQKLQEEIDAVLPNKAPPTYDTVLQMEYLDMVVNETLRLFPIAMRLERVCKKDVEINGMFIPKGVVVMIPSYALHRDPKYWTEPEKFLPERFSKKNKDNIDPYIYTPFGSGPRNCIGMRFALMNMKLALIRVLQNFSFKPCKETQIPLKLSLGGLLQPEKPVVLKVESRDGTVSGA

Cytochrome P450 2D6 = Cytochrome P450 2D6 (Homo sapiens, UniProt P10635);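 also: CYP2D6 member of a cytochrome P450 panel assay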
Sequence of Cytochrome P450 2D6 (P10635 whole entry): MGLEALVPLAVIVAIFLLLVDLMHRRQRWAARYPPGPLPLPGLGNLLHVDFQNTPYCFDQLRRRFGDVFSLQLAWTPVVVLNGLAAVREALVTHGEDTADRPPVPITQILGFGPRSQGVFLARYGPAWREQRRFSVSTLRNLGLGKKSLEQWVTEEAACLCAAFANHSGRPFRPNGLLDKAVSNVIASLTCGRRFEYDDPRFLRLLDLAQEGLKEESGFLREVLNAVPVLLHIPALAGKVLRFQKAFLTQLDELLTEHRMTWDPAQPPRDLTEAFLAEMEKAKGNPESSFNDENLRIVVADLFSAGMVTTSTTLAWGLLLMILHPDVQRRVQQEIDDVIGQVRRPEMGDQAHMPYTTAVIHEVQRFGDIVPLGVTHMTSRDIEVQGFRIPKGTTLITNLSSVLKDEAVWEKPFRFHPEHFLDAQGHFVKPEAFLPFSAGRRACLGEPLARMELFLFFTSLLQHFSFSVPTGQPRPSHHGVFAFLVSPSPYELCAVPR

Trypsin = Trypsin (Sus scrofa, UniProt P00761); assay: trypsin protease activity blockade – biochemical, quenched peptide fluorescence, cherry-pick, selectivity assay for Rce1 protease inhibitor project, dose response (AID 488789)
Sequence of Trypsin (P00761 whole entry): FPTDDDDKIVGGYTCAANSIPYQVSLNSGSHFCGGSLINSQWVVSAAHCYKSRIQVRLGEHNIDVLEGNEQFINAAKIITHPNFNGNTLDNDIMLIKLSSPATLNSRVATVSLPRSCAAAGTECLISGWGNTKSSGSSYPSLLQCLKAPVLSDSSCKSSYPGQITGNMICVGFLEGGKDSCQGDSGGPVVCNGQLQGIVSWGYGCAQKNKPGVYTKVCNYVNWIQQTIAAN

[4] = target: FAD-linked sulfhydryl oxidase ALR (Homo sapiens, UniProt P55789); assay: ALR-catalysed DTT oxidation blockers – biochemical, H2O2 detection, luminescence, cherry-pick, dose response (AID 493248)
Sequence of FAD-linked sulfhydryl oxidase ALR (P55789 whole entry): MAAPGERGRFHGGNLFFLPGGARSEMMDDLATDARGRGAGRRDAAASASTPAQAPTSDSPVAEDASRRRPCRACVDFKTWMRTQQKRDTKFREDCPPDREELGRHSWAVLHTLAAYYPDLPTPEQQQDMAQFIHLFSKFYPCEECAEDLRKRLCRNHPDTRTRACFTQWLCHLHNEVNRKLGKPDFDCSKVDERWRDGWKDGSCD

CAAX prenyl protease 2 = target: T4, CAAX prenyl protease 2 (Homo sapiens, UniProt Q9Y256); assay: inhibition of Ras-converting CAAX protease Rce1 – biochemical, yeast membranes, quenched-peptide fluorescence, cherry-pick, dose response (AID 588849)
T4 sequence (Q9Y256 whole entry): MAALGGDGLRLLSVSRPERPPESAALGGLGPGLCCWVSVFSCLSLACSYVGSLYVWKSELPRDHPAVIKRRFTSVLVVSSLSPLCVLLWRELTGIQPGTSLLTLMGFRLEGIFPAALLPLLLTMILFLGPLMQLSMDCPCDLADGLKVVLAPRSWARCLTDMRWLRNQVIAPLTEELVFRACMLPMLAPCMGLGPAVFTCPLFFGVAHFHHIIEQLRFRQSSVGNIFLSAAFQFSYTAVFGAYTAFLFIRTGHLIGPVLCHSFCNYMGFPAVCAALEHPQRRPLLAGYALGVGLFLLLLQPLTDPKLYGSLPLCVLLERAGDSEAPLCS

[5] = viability loss in HeLa cells – cytotoxicity control for MgcRacGAP inhibitor project, dose response (AID 624300); format: functional
[6] = target: T5, Rac GTPase-activating protein 1 (Homo sapiens, UniProt Q9H0H5); assay: blockers of MgcRacGAP-driven Rac1 GTP hydrolysis – biochemical, ADP Hunter fluorescence, primary and confirmatory, confirmation (AID 624330); format: functional
T5 sequence (Q9H0H5 whole entry): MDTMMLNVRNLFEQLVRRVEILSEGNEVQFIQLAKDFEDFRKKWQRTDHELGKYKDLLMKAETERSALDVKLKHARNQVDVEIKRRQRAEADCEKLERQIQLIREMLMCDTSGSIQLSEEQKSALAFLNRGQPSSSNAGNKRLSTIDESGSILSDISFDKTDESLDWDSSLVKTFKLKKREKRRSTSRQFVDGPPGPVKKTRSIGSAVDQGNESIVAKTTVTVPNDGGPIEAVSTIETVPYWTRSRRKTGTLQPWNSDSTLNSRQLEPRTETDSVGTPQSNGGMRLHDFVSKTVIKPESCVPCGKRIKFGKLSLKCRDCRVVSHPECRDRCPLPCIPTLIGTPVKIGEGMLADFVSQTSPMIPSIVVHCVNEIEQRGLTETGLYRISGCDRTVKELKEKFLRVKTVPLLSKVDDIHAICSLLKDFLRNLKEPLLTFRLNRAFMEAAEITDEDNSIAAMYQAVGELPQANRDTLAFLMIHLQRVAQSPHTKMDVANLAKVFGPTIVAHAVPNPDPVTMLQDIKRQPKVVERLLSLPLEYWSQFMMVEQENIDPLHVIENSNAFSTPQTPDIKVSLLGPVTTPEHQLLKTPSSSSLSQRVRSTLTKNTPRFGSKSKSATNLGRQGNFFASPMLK

[7] = target: T6, RNA-binding protein pos-1 (Caenorhabditis elegans, UniProt G5EF15); assay: disruptors of C. elegans POS-1 RNA interaction – biochemical, fluorescence polarization, dose response (AID 1964);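 also: purified POS-1 fused to maltose binding protein made in E. coli; potency of compounds blocking POS-1 binding to fluorescent RNA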
T6 sequence (G5EF15 whole entry): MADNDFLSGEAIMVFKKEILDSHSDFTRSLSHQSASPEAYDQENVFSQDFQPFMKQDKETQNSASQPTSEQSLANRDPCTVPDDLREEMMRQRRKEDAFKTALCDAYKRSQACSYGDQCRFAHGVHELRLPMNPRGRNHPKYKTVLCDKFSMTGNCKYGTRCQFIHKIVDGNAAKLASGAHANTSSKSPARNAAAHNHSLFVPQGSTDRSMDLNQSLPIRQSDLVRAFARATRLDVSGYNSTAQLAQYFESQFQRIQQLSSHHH

[8] = target: T7, Zinc finger protein mex-5 (Caenorhabditis elegans, UniProt Q9XUB2); assay: potency of MEX-5 RNA-binding blockers – biochemical, C. elegans, fluorescence polarization, dose response (AID 1960)
T7 sequence (Q9XUB2 whole entry): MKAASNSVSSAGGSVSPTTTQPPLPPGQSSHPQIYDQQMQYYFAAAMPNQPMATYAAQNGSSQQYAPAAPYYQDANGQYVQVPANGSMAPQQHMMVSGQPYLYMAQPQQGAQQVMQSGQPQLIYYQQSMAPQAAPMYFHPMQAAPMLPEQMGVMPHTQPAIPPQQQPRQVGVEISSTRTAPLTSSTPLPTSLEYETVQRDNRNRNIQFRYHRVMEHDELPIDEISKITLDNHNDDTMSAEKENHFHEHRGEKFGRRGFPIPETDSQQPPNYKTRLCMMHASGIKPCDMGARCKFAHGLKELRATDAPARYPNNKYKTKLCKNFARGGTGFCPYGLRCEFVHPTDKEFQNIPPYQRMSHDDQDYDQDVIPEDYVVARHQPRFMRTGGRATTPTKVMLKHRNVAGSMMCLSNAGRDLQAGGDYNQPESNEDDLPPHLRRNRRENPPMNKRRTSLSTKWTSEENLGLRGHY

[9] = target: T8, Endoribonuclease toxin MazF (Escherichia coli K-12, UniProt P0AE70); assay: activation of MazEF endoribonuclease cleavage – biochemical, fluorescence, single-stranded RNA substrate, uHTS hits, dose response (AID 588481); format: functional
T8 sequence (P0AE70 whole entry): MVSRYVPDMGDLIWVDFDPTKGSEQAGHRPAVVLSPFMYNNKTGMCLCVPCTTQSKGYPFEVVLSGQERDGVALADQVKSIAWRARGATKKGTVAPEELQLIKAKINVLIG

[10] = target: T8, Endoribonuclease toxin MazF; assay: substrate-only fluorescence increase artefacts – biochemical, single-stranded RNase substrate, counter-screen for MazEF activator project, dose response (AID 588502); format: functional
[11] = A cytotoxicity screen of small molecule inhibitors of the PhoP region in Salmonella typhi identified in the primary screen. [Related pubchem assays: 1850, 1864, 1985 ]; format: functional
[12] = test system: Streptococcus sp. 'group A'; assay: Streptococcus pyogenes SK(-)GAS viability under kanamycin – luminescence, BacTiterGlo, confirmation, counter-screen for streptokinase expression inhibitor project, dose response (AID 1900); format: functional, organism-based
Streptokinase A = target: T9, Streptokinase A (Streptococcus pyogenes serotype M1, UniProt P10520); assay: viability-normalized secreted streptokinase activity reduction – plasminogen activation absorbance, OD405, dose response (AID 1914); format: functional, Streptococcus pyogenes M1 GAS;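 also: secreted streptokinase activity via plasminogen activation per viability signal from cell pellet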
T9 sequence (P10520 whole entry): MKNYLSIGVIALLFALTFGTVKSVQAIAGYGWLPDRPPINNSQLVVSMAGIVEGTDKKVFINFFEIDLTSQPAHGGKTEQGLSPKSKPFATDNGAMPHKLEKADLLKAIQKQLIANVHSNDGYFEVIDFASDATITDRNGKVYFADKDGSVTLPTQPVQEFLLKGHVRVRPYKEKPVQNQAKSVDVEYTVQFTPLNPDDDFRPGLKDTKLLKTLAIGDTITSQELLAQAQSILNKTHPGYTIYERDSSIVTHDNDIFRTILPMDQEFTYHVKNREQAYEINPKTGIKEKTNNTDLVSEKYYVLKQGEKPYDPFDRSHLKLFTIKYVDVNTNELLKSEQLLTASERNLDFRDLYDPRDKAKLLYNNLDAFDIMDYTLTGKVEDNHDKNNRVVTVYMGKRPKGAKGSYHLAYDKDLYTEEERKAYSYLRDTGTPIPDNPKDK

[13] = target: Induced myeloid leukemia cell differentiation protein Mcl-1 (Homo sapiens, UniProt Q07820); format: functional
Sequence of Induced myeloid leukemia cell differentiation protein Mcl-1 (Q07820 whole entry): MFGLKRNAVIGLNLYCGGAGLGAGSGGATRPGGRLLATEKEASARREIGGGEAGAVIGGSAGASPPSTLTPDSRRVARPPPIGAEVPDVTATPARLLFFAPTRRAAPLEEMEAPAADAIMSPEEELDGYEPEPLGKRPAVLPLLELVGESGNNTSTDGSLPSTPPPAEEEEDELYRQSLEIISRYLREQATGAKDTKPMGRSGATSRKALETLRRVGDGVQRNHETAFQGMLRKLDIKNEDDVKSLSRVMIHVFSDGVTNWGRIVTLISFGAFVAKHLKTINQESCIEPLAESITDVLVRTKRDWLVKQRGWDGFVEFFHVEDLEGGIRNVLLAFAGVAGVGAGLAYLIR

Streptococcus = assay: GAS UMAA2166 growth inhibition – luminescence, BacTiterGlo, counter-screen for streptokinase expression inhibitor project, dose response (AID 1915); format: functional, organism-based;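 also: potency for reduction of bacterial viability or growth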
[14] = target: T10, Small ubiquitin-related modifier 1 (Homo sapiens, UniProt P63165); assay: SUMO1 protein interaction blockers, potency – biochemical, fluorescence polarization, uHTS hits, dose response (AID 624382); format: functional; details: read-out: IC50_Mean
T10 sequence (P63165 whole entry): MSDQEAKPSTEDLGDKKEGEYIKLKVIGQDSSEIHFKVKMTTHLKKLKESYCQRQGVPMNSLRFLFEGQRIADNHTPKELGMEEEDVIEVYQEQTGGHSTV

[15] = target: T10, Small ubiquitin-related modifier 1; assay: SUMO1 protein-protein binding blockers, potency – biochemical, FRET, dose response (AID 624383); format: functional; details: read-out: IC50_Mean

NCCc1ccc(OCc2ccccc2)c(OCc2ccccc2)c1
AC50 [1]: 11.2 µM (active) | IC50 [2]: > 20 µM (inactive) | AC50 (A-375): 30.2 µM (active)

COC(=O)c1cccc2c1NC(=O)C2=O
IC50 (HEK293): > 67.6 µM (inactive) | IC50 [3]: > 67.6 µM (inactive)

O=C(c1ccccc1C(F)(F)F)N1CCN(S(=O)(=O)c2ccccc2)CC1
IC50 (HEK293): > 67.6 µM (inactive) | IC50 [3]: > 67.6 µM (inactive)

COc1ccc(-c2cn3cccc(C)c3n2)cc1F
AC50 (HeLa): > 350 µM (inactive)

Clc1ccc(OCc2noc(-c3ccsc3)n2)c(Cl)c1
IC50 (HEK293): > 67.5 µM (inactive) | IC50 [3]: > 67.5 µM (inactive) | AC50 (HeLa): 111 µM (active) | IC50 (Protein skinhead-1): > 100 µM (inactive)

Cc1cc(C)nc(SCC(=O)N/N=C\c2sccc2C)n1
AC50 (Cytochrome P450 3A4): 15.8 µM (inconclusive) | AC50 (Cytochrome P450 2D6): inconclusive

Nc1ccc2[nH]c(-c3ccccc3)nc2c1
AC50 (Trypsin): 3.48 µM (active) | AC50 [4]: 2.19 µM (active) | AC50 (CAAX prenyl protease 2): 2.12 µM (active) | CC50 [5]: 100 µM (active) | IC50 [6]: 30.2 µM (active)

O=[N+]([O-])c1cccc(/C=C/c2nc(/C=N/c3ccccc3)c(O)o2)c1
EC50 [7]: > 300 µM (not active) | EC50 [8]: 39.4 µM (active) | EC50 [9]: > 99 µM (inactive) | EC50 [10]: 19.2 µM (active)

Cc1nc(N2CCOCC2)c2c(C)c(C(=O)Nc3ccccc3C(F)(F)F)sc2n1
EC50 [11]: > 50 µM (active) | AC50 (CAAX prenyl protease 2): 15 µM (active)

COc1ccc(-c2cc3nc4ccccc4n3c(N)c2C#N)cc1
EC50 [12]: 1.45 µM (active) | EC50 (Streptokinase A): > 150 µM (not active) | IC50 [13]: 2.52 µM (active) | EC50 (Streptococcus): 15.7 µM (active) | AC50 (HeLa): 143 µM (active) | IC50 [14]: > 66.6 µM (inactive) | IC50 [15]: 7.98 µM (active)
